What was measured:
Format in all cases: in vivo
female SAMP8 mice = test: Three chamber test (TCT) in female SAMP8 mice; settings: 0.96 mg/kg/day in drinking water for 4 months
Source text: In this test, after adaptation to the thee-chamber arena, a mouse is released into the middle chamber and allowed to explore the other compartments. In the adjacent ‘mouse’ compartment a docile stimulus mouse is situated in a mesh-wire container, while in the other adjacent compartment a similar container is located without stimulus mouse (object compartment). The propensity to approach or avoid the compartment with the stimulus mouse provides a measure of social interaction behavior/sociability. Wild type mice prefer social interaction and spend more time in the mouse compartment in comparison to the object compartment.
In this study, 8-month old female SAMP8 mice were treated either with vehicle (n=9) or 0.96 mg/kg/day of Compound 1 (n=12) for 4 months and then subjected to the TCT. […] Drug concentration was calculated weekly in function of body weight and corrected in function of drinking water consumption.
The TCT was performed in a Plexiglas transparent box with three identical consecutive chambers (15×15×20 cm) with two identical small metallic cages placed in both lateral chambers. […] This habituation time was monitored to avoid animals showing preference for one of the chambers. […] The time spent in each chamber and the time of direct exploration of the novel mice was measured during a total observation time of 10 minutes. […]

male SAMP8 mice [1] = test: Resident-intruder (RI) test in male SAMP8 mice (aggressive behavior)
Method: In this study, male SAMP8 animals were treated either with vehicle (n=5), 0.32 (n=8) or 0.96 (n=8) mg/kg/day of Compound 1 for 5 weeks from month 5 of age and then subjected to the RI test. Vehicle (1.8% 2-Hydroxypropyl-β-cyclodextrin, Sigma-Aldrich, Spain) or Compound 1 were administered in drinking water. SAMR1 mice treated with vehicle were included as a control (n=6). All drugs were administered via drinking water and diluted in vehicle. Drug concentration was calculated weekly in function of body weight and corrected in function of drinking water consumption.
The resident-intruder (RI) test was performed as follows: the test subject (resident) was maintained in its home cage without bedding changes for one week. […] The session (20 min) was video-recorded and social interaction (parameters tested: social interaction and rearings) and aggressive behavior (parameters tested: lateral threats, clinch attacks, keep-down behavior, and total attacks as the sum of all three aggressive behavior parameters measured) of the test subject were analyzed by an experimenter blind to the treatment.
(§1) Statistical analysis: SAMR1 and SAMP8 vehicle groups were compared by t-Test. Among the SAMP8 groups, different treatments were compared by oneway-ANOVA with Dunnet and SNK post-Hoc analysis.

male SAMP8 mice [2] = test: Open field (OF) test in male SAMP8 mice; settings: 0.32 or 0.96 mg/kg/day in drinking water
Method: (§2) Animals (n=8/group) were treated from month 5 of age with vehicle, 0.32 or 0.96 mg/kg/day Compound 1, and by month 7 of treatment they were sequentially submitted to the OF and EPM test at one week intervals.
(§3) Vehicle (1.8% 2-Hydroxypropyl-(3-cyclodextrin, Sigma-Aldrich, Spain) or KDM1A inhibitor (Compound 1) were administered in drinking water. SAMR1 mice treated with vehicle were included as a control (n=8). All drugs were administered via drinking water and diluted in vehicle. Drug concentration was calculated weekly in function of body weight and corrected in function of drinking water consumption.
Open Field (OF): A 50×50-cm white plastic arena with 25-cm-high walls was used to analyze spontaneous exploratory behavior. The floor of the apparatus was divided into 25 equal squares. The movements of each animal were video recorded during 5 min. Locomotor activity was analyzed by video-tracking over the captured images using SMART® (v3.0, PanLab, SLU, Spain).
as §1

male SAMP8 mice [3] = test: Elevated plus maze (EPM) test in male SAMP8 mice
Method: as §2, §3
(§4) Elevated Plus Maze (EPM): The EPM consisted of four arms at right angles to each other connected to a central square and maintained elevated 50 cm above the floor. Two of the opposite arms had high walls (enclosed arms, 30×5×15 cm), whereas the other two were open arms (30×5×0 cm). The animal was placed facing a closed arm, and its movements were video-recorded for 5 min and analyzed by video-tracking using SMART® (v3.0, PanLab, SLU, Spain).
as §1

[4] = tested on: isolated Sprague-Dawley male rats; test: Elevated plus maze (EPM) test in the rat isolation rearing model; settings: 0.16 or 0.48 mg/kg/day in drinking water
Method: (§5) Right after the weaning (post natal day 21-23), 48 Sprague-Dawley male rats were divided in two groups: Control (Non Isolated; n=12), maintained 3-4 animals per cage; Isolated (n=36), 1 animal per cage. Starting on postnatal day (PND) 61, adult isolated male rats were treated with vehicle, Compound 1 at 0.16 mg/kg/day or Compound 1 at 0.48 mg/kg/day (n=12/group) for 5 weeks. Control (non-isolated) animals were treated with vehicle. The administration route was drinking water and the vehicle 1.8% 2-hydroxypropyl-β-cyclodextrin. Drug concentration was adjusted weekly by body weight and water consumption. During the last week of treatment, all animals were tested in the RI (PND94) to evaluate social behavior and, on a different day, in the EPM test (PND87-88) to evaluate anxiety behavior.
as §4, with “The elevated plus maze (EPM) test was perfomed following a similar protocol to that described for mice in Example 3 above, as follows:” for “Elevated Plus Maze (EPM):”, “46.5×12×42” for “30×5×15”, “(46.5×12×0.3” for “(30×5×0”, “(v2.5.21,” for “(v3.0,”, “Spain). […]” for “Spain).”

[5] = tested on: isolated Sprague-Dawley male rats; test: Resident-intruder (RI) test in the rat isolation rearing model (social withdrawal)
Source text: In this model, rats are isolated after weaning on postnatal day 21 (PND21) and deprived of the normal environment that preconditions their social behavior. Isolation in this phase of the development of the rat may lead to behavior alterations, particularly a lack of interest for social interactions, which can be used as a model for human social withdrawal.
as §5
The resident-intruder (RI) test was performed following a similar protocol to that described for mice in Example 3 above, as follows: Briefly, the test subject (resident) was maintained in its home cage without bedding changes for one week. […] The session was video-recorded during 15 min, and social interaction (parameters measured: active and passive social interaction, avoidance and time without social interaction) and aggressive behavior of the test subject were analyzed by an experimenter blind to the treatment.
Statistical analysis: Non Isolated and Isolated vehicle groups were compared by t-Test. Among the Isolated groups, different drug treatments were compared by oneway-ANOVA with Dunnet and SNK post-Hoc analysis.

Nc1nnc(CN[C@@H]2C[C@H]2c2ccc(OCc3ccccc3)cc2)o1 [Compound 1, 5-((((1R,2S)-2-(4-(benzyloxy)phenyl)cyclopropyl)amino)methyl)-1,3,4-oxadiazol-2-amine]
preference for the socialization chamber (mice chamber) over the Object chamber (female SAMP8 mice; vs SAMR1, FIG. 5): restored | time spent exploring a novel mouse (female SAMP8 mice; vs SAMR1, FIG. 6): restored | number of total attacks (male SAMP8 mice [1]; male SAMP8 mice, 0.32 or 0.96 mg/kg/day in drinking water for 5 weeks, vs vehicle-treated SAMR1, FIG. 1): lowered the number of attacks in SAMP8 mice to SAMR1 levels | number of clinch attacks (male SAMP8 mice [1]; male SAMP8 mice, 0.32 or 0.96 mg/kg/day in drinking water for 5 weeks, vs vehicle-treated SAMR1, FIG. 2): lowered the number of attacks in SAMP8 mice to SAMR1 levels | tolerability of doses on long-term treatment (male SAMP8 mice [1]; mice, 0.32 or 0.96 mg/kg/day in drinking water): well-tolerated | locomotor activity (male SAMP8 mice [2]): nor did treatment with Compound 1 significantly affect locomotor activity | anxiolytic or sedative activity (male SAMP8 mice [3]; conclusion from OF and EPM tests in SAMP8 mice): did not have anxiolytic or sedative activity | time in the open arms of the EPM (male SAMP8 mice [3]; male SAMP8 mice, 0.32 or 0.96 mg/kg/day in drinking water): not significantly modified | effect on anxiety or locomotor activity [4]: did not produce any significant effect | number of evitations ([5]; isolated rats, 0.16 or 0.48 mg/kg/day in drinking water for 5 weeks, vs non-isolated rats, FIG. 4): restored to normality | time without social interaction ([5]; isolated rats, 0.16 or 0.48 mg/kg/day in drinking water for 5 weeks, FIG. 3): dose dependently reduced | tolerability of doses on long-term treatment ([5]; rats, 0.16 or 0.48 mg/kg/day in drinking water): well-tolerated

— US20200323828A1, “METHODS OF TREATING BEHAVIOR ALTERATIONS” (Oryzon Genomics, S.A., priority 2017, published 2020)
